As usually defined, the IC50 is the concentration that gives 50% inhibition. A word on the inhibition: it is the drop in the measured response relative to a control, in per cent. For orientation: inhibition in vivo means how much of the control response was suppressed. Read a high inhibition in vivo as a response far below the control.

The target in test [1] is T1, human platelet phospholipase A2 (Homo sapiens, UniProt P14555).
T1 construct: a preparation of human platelet phospholipase A2; from tissue; host or cells: human platelets
T1 sequence (P14555 21-144): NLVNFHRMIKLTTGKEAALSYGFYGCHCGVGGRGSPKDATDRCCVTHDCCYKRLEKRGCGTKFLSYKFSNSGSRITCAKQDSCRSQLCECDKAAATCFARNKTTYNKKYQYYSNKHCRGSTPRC
The experiment in a line: Inhibition of human platelet phospholipase A2 (14C-oleate E. coli substrate). It is filed as biochemical. The following applies: for IC50: pH 7.0, 37°, 60 min incubation, read-out: Inhibition of PLA2, IC50; for inhibition at 50 µM: read-out: Inhibition of PLA2, % Inhibition @ 50 μM; for inhibition at 10 µM: @ 10 μM (values marked *), read-out: Inhibition of PLA2, % Inhibition @ *10 μM. As to the method: The activity of the compounds of the invention against phospholipase A2 is determined using a preparation of human platelet phospholipase A2 with a specific activity of 180 nmol/min/mg as the enzyme source. Polypropylene 15-ml test tubes are utilized as the reaction vessels. All drug samples are run in duplicate, with "blank" and "control" (no test compound) groups run in triplicate. […] Test compounds are dissolved in DMSO, and diluted to a projected final concentration of either 50 or 10 μM in 550 μl HEPES buffer at pH 7.0. A 1:7 dilution of human platelet PLA2 in HEPES buffer (5 μl) is added to each test tube, followed by gentle vortexing for 3 seconds. The reaction tubes containing drug, buffer, and enzyme are preincubated for 15 min at 37°, followed by the addition of 25 μl of ^14 C-oleate E. coli substrate. Details regarding this substrate may be found in a publication by S. Ghosh and R. Franson, Biochem. Cell. Biol., 70, 43 (1992), and references therein.
The tubes are immediately vortexed at moderate speed for 3 sec, followed by a 60 min incubation at 37° in a shaking water bath. The reaction is stopped by the addition of 3 ml of a 1:2 chloroform-methanol mixture. Additional water (1.5 ml) and chloroform (1.0 ml) are added, followed by vortexing. The lower phase is removed with a polypropylene transfer pipette, and transferred to a 13×100 mm polypropylene test tube. The organic solvent is evaporated with a stream of nitrogen, the residue is redissolved in 30 μl of a 9:1 chloroform-methanol mixture, and the solution is spotted on a channeled polyester-backed silica gel TLC plate, such as those available under the trade name PE SIL G available from Whatman Inc, Clifton, N.J.
The plate is developed with an 80:20:1 mixture of petroleum ether-diethyl ether-acetic acid. […] The plate is scored above the origin, cut along the score with scissors, and the reactant (origin) and product portions of each channel are put into separate scintillation vials. To each vial is added a scintillation cocktail (15 ml), preferably that sold under the trademark ECOLUME by ICN Biomedicals, Irvine Calif. The vials are shaken vigorously for 5 sec, and the radioactive ^14 C in each vial is measured with a scintillation counter, which provides the counts-per-minute (cpm) for each sample. The obtained cpm values are corrected for the "blank" values.
The percentage of phospholipid hydrolyzed is calculated by the formula:
Phospholipid converted=100×cpm products / (cpm products+cpm
The inhibition of phospholipase A2 by the test compounds is expressed as a percent inhibition relative to the control group:
% Inhibition=[…]

Test [2] has as its system TPA-induced inflammation in the mouse ear. The experiment in a line: Topical anti-inflammatory activity: TPA-induced inflammation (edema) in the mouse ear. The format is in vivo, mouse (male CD-1). The conditions noted are these: for inhibition in vivo at 100 µg/ear: Mus musculus, @ 100 μg, 5-6 h after TPA; for Inhibition of ear edema, IC50: multiple-dose experiment, dose for 50% inhibition of weight gain. The method, then: The topical anti-inflammatory activity of the compounds is determined by measuring the degree of inhibition of TPA-induced inflammation in the mouse ear, using essentially the procedure of C. Van Arman, Clin. Pharmacol. Ther., 16, 900 (1974). Male CD-1 mice are used at seven to nine weeks of age. 12-O-tetradecanoylphorbol acetate ([…] in 20 μl of acetone) is dispensed onto the dorsum of the left ear of each mouse, and the right ear is left untreated. Ten mice so treated serve as the control group. […]
After five to six hours, the animals are sacrificed by CO2 inhalation, the ears are removed, and 7 mm circular punch biopsies of are taken from each ear and weighed. The difference in biopsy weight between treated and untreated ears is determined, and the degree of anti-inflammatory activity is expressed in terms of the percent inhibition of ear weight increase relative to the control group. In multiple-dose experiments, varying amounts of the compound to be tested are applied along with the TPA and the results are expressed as the ED50, the dose at which a 50% inhibition of weight gain is observed.

Turning to `O=C1C=C(c2ccc(/C=C/c3ccccc3)cc2)C(O)O1` (single isomer, unassigned) [Example 34, (E)-5-Hydroxy-4-(4-(2-phenylethenyl)phenyl)-2(5H)-furanone], in test [1], the IC50 is 30 µM and the inhibition at 50 µM stood at 91%. Also, the inhibition in vivo at 100 µg/ear in test [2] came out at 33%.

Turning to `CCCCCCCCOc1ccc(C2=CC(=O)OC2O)cc1` (stereo not drawn) [Example 1, 5-Hydroxy-4-(4-octyloxyphenyl)-2(5H)furanone], in test [1], the IC50 was found to be 14 µM and the inhibition at 50 µM turned out to be 91%. In test [2], the inhibition in vivo at 100 µg/ear came to 56% and the “Inhibition of ear edema, IC50” value was 300 µg.

Regarding `O=C1C=C(c2ccc(OCCOc3ccc4ccccc4c3)cc2)C(O)O1` (stereo not drawn) [Example 12, 5-Hydroxy-4-[4-(2-(2-naphthyloxy)ethoxy)phenyl]-2(5H)furanone], the inhibition at 50 µM in test [1] is 47%. The same molecule had an inhibition in vivo at 100 µg/ear in test [2] of 45%.

For the molecule `O=C1C=C(c2ccc(OCCCCCCOc3ccc4ccccc4c3)cc2)C(O)O1` (stereo not drawn) [Example 13, 5-Hydroxy-4-[4-(6-(2-naphthyloxy)hexyloxy)phenyl]-2(5H)furanone], in test [1], the IC50 is 22 µM and the inhibition at 50 µM amounted to 73%. The inhibition in vivo at 100 µg/ear in test [2] was 0%.

For `CC1=C(CCCC/C=C(\C)COc2ccc(C3=CC(=O)OC3O)cc2)C(C)(C)CCC1` (stereo not drawn) [Example 14, (E)-5-Hydroxy-4-(4-(2-methyl-7-(2,6,6-trimethyl-1-cyclohexen-1-yl)-2-heptenyloxy)phenyl)-2(5H)-furanone], the inhibition at 50 µM in test [1] was 87%. In addition, in test [2], the inhibition in vivo at 100 µg/ear worked out at 4%.

Turning to `CC1=C(CC/C=C(\C)COc2ccc(C3=CC(=O)OC3O)cc2)C(C)(C)CCC1` (stereo not drawn) [Example 15, (E)-5-Hydroxy-4-(4-(2-methyl-5-(2,6,6-trimethyl-1-cyclohexen-1-yl)-2-pentenyloxy)phenyl)-2(5H)-furanone], the inhibition at 50 µM in test [1] came out at 94%. Also, the inhibition in vivo at 100 µg/ear in test [2] was determined as 49%.

Consider `CC1=C(C/C=C(\C)COc2ccc(C3=CC(=O)OC3O)cc2)C(C)(C)CCC1` (stereo not drawn) [Example 16, (E)-5-Hydroxy-4-(4-(2-methyl-4-(2,6,6-trimethyl-1-cyclohexen-1-yl)-2-butenyloxy)phenyl)-2(5H)-furanone], for which, in test [1], the IC50 stood at 9 µM and the inhibition at 50 µM worked out at 100%. Moreover, in test [2], the inhibition in vivo at 100 µg/ear came to 43% and the “Inhibition of ear edema, IC50” value turned out to be 106 µg.

As for `CC1=C(C/C=C(\C)COc2cccc(C3=CC(=O)OC3O)c2)C(C)(C)CCC1` (stereo not drawn) [Example 17, (E)-5-Hydroxy-4-(3-(2-methyl-4-(2,6,6-trimethyl-1-cyclohexen-1-yl)-2-butenyloxy)phenyl)-2(5H)-furanone], in test [1], the IC50 was found to be 8 µM and the inhibition at 50 µM is 100%. Moreover, in test [2], the inhibition in vivo at 100 µg/ear was 51% and the “Inhibition of ear edema, IC50” value came to 87 µg.

Take `CC1=C(C/C=C(\C)CSc2ccc(C3=CC(=O)OC3O)cc2)C(C)(C)CCC1` (stereo not drawn) [Example 18, (E)-5-Hydroxy-4-(4-(2-methyl-4-(2,6,6-trimethyl-1-cyclohexen-1-yl)-2-butenylthio)phenyl)-2(5H)-furanone]: the inhibition at 50 µM in test [1] was found to be 75%. Further, in test [2], the inhibition in vivo at 100 µg/ear was determined as 70% and the “Inhibition of ear edema, IC50” value is 28 µg.

For the molecule `CCCCCCCCSc1ccc(C2=CC(=O)OC2O)cc1` (stereo not drawn) [Example 19, 5-Hydroxy-4-(4-(octylthio)phenyl)-2(5H)furanone], in test [1], the IC50 came to 5 µM and the inhibition at 50 µM is 98%. The molecule also came in with an inhibition in vivo at 100 µg/ear in test [2] of 20%.

With `CC(C)=CCC/C(C)=C/CSc1ccc(C2=CC(=O)OC2O)cc1` (stereo not drawn) [Example 23, (E)-5-Hydroxy-4-(4-(3,7-dimethyl-2,6-octadienyl)thio)phenyl-2(5H)furanone], in test [1], the half-inhibitory concentration (IC50) was determined as 8 µM and the inhibition at 50 µM was 78%. Also, the inhibition in vivo at 100 µg/ear in test [2] is 56%.

On to `CC1=C(CCCCCCCOc2ccc(C3=CC(=O)OC3O)cc2)C(C)(C)CCC1` (stereo not drawn) [Example 27, 5-Hydroxy-4-(4-(7-(2,6,6-trimethyl-1-cyclohexen-1-30 yl)heptyloxy)phenyl)-2(5H)-furanone], for which, in test [1], the IC50 was found to be 1.4 µM and the inhibition at 50 µM is 67%. The molecule also showed an inhibition in vivo at 100 µg/ear in test [2] of 35%.

As to `C=CCCCCCCCCC(=O)c1ccc(C2=CC(=O)OC2O)cc1` (stereo not drawn) [Example 28, 5-Hydroxy-4-(4-(1-oxoundec-10-en-1-yl)phenyl)-2(5H)-furanone], in test [1], the IC50 turned out to be 9 µM and the inhibition at 50 µM was 86%. The molecule further came in with an inhibition in vivo at 100 µg/ear in test [2] of 0%.

Regarding `O=C1C=C(c2ccc(C(=O)/C=C/c3ccc4ccccc4c3)cc2)C(O)O1` (stereo not drawn) [Example 30, (E)-5-Hydroxy-4-(4-(3-(2-naphthyl)-1-oxo-2-propenyl)phenyl)-2(5H)-furanone], in test [1], the IC50 amounted to 7 µM and the inhibition at 50 µM is 92%. Further, in test [2], the inhibition in vivo at 100 µg/ear came out at 66% and the “Inhibition of ear edema, IC50” value turned out to be 80 µg.

For `CCCCCC/C=C/c1ccc(C2=CC(=O)OC2O)cc1` (stereo not drawn) [Example 35, (E)-5-Hydroxy-4-(4-(1-octenyl)phenyl)-2(5H)-furanone], in test [1], the IC50 amounted to 5 µM and the inhibition at 50 µM was found to be 100%. In test [2], this molecule registered an inhibition in vivo at 100 µg/ear of 30%.

For the molecule `O=C1C=C(c2ccc(C#Cc3ccc([N+](=O)[O-])cc3)cc2)C(O)O1` (stereo not drawn) [Example 60, 5-Hydroxy-4-(4-(2-(4-nitrophenyl)ethynyl)phenyl)-2(5H)-furanone], the inhibition at 10 µM in test [1] was 11%.

Consider `COc1ccc(C#Cc2ccc(C3=CC(=O)OC3O)cc2)cc1` (stereo not drawn) [Example 61, 5-Hydroxy-4-(4-(2-(4-methoxyphenyl)ethynyl)phenyl)-2(5H)-furanone], for which the inhibition at 50 µM in test [1] amounted to 33%.

On to `O=C1C=C(c2ccc(C#Cc3cc4ccccc4s3)cc2)C(O)O1` (stereo not drawn) [Example 62], for which the inhibition at 10 µM in test [1] was 33%.

For the molecule `O=C1C=C(c2cccc(C#Cc3ccccc3)c2)C(O)O1` (stereo not drawn) [Example 63, 5-Hydroxy-4-(3-(2-phenylethynyl)phenyl)-2(5H)-furanone], the inhibition at 10 µM in test [1] stood at 45%.

Turning to `CCCCCCCCCCCCCOc1ccc(SC2=CC(=O)OC2O)cc1` (stereo not drawn) [Example 65, 5-Hydroxy-4-(4-(tridecyloxy)phenylthio)-2(5H)-furanone], in test [1], the inhibition at 10 µM was 98%.

For `CCCCCOc1ccc(SC2=CC(=O)OC2O)cc1` (stereo not drawn) [Example 66, 5-Hydroxy-4-(4-(pentyloxy)phenylthio)-2(5H)-furanone], in test [1], the inhibition at 10 µM came out at 48%.

In the case of `CC1=C(C/C=C(\C)COc2ccc(SC3=CC(=O)OC3O)cc2)C(C)(C)CCC1` (stereo not drawn) [Example 67, (E)-5-Hydroxy-4-(4-(2-methyl-4-(2,6,6-trimethyl-1-cyclohexen-1-yl)-2-butenyloxy)phenylthio)-2(5H)-furanone], in test [1], the IC50 was 0.5 µM and the inhibition at 50 µM came to 98%.

For `O=C1C=C(Sc2ccc(Br)cc2)C(O)O1` (stereo not drawn) [Example 68, 5-Hydroxy-4-((4-bromophenyl)thio)-2(5H)-furanone], in test [1], the inhibition at 50 µM was 0%.

With `CCCCCCCCOc1ccc(C2=CC(=O)OC2O)cn1` (stereo not drawn) [Example 69, 5-Hydroxy-4-(6-octyloxy-3-pyridyl)-2(5H)-furanone], the inhibition at 50 µM in test [1] came to 52%.

On to `CCCCCCCCSc1nc(C2=CC(=O)OC2O)cs1` (stereo not drawn) [Example 70, 5-Hydroxy-4-(2-(octylthio)-4-thiazolyl)-2(5H)-furanone], for which, in test [1], the inhibition at 50 µM was determined as 70%.

The values above are taken from patent US5464865A, “4-aryl- and 4-arylthio-5-hydroxy-2(5H)-furanones as inhibitors of phospholipase A2” (Ortho Pharmaceutical Corporation, priority 1993, dated 1995).
